Assay results taken from PubChem BioAssay (NCI).
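These data come from cells grown in 96-well plates and exposed to compound for 48 hours at five concentrations. The concentration for full growth arrest is given as TGI.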

Assays:
Assay in all cases: inhibition of tumour cell growth, NCI panel, 48 h
[1] = test system: T-47D breast
[2] = test system: A498 renal
[3] = test system: HCT-116 colon
[4] = test system: SF-268 CNS
[5] = test system: CCRF-CEM leukemia
[6] = test system: SK-MEL-28 melanoma
[7] = test system: SN12C renal
[8] = test system: RXF 393 renal
[9] = test system: SK-MEL-5 melanoma
[10] = test system: DU-145 prostate
[11] = test system: NCI/ADR-RES ovarian
[12] = test system: HOP-62 NSCLC

| Structure (SMILES) | TGI [1] | TGI [2] | TGI [3] | TGI [4] | TGI [5] | TGI [6] | TGI [7] | TGI [8] | TGI [9] | TGI [10] | TGI [11] | TGI [12] |
| --- | --- | --- | --- | --- | --- | --- | --- | --- | --- | --- | --- | --- |
| Cc1ccc(S(=O)(=O)N2CCCSCC2)cc1 | > 100 µM | > 100 µM | > 100 µM | > 100 µM | > 100 µM | > 100 µM | > 100 µM | > 100 µM | > 100 µM | > 100 µM | > 100 µM |  |
| CN(C)c1nc(Cl)c2c(-c3ccccc3)c(-c3ccccc3)oc2n1 | > 100 µM | > 100 µM | > 100 µM | > 100 µM | > 100 µM | > 100 µM | > 100 µM | 45.2 µM | > 100 µM | > 100 µM | > 100 µM |  |
| Cc1ccc(S(=O)(=O)NNCNC(=O)c2ccccc2)cc1 | > 100 µM |  | > 100 µM | > 100 µM | 63.2 µM | > 100 µM | > 100 µM | > 100 µM | > 100 µM | > 100 µM | > 100 µM | > 100 µM |
| Cc1ccnc(NC(NC(=O)c2ccccc2)(C(F)(F)F)C(F)(F)F)c1 | > 100 µM |  | > 100 µM | > 100 µM | > 100 µM | > 100 µM | > 100 µM | > 100 µM | > 100 µM | > 100 µM | > 100 µM | > 100 µM |
| CC(C)(C)OC(=O)N1C(c2cccnc2)=CC[C@H]2C3CC=C(c4cccnc4)[C@@]3(C)CC[C@@H]21 (stereo not given in full) | 29.8 µM | 18.5 µM | 17.5 µM | 11.5 µM | 25.8 µM |  | 13 µM | 14.6 µM | 4.18 µM | 19.2 µM | 34.9 µM | 16.3 µM |
| N#Cc1ccc(-n2c3ccccc3c3ccc4c(c32)C(=O)C=CC4=O)cc1 | > 100 µM | 11 µM | 7.19 µM | 9.12 µM |  | 13.1 µM | 14.2 µM | 5.32 µM | 12.2 µM | > 24.7 µM | 53.9 µM | 30.8 µM |
| Oc1ccc2c(c1)-c1c(c3ccccc3n1CCN1CCOCC1)CC2 | > 100 µM | > 100 µM | > 100 µM | > 100 µM | > 100 µM |  | > 100 µM | > 100 µM | > 100 µM | > 100 µM | 95.3 µM | > 100 µM |
| O=c1/c(=C/c2ccc(-c3ccc(Cl)cc3Cl)o2)sc2n1[C@@H](c1ccc(Cl)cc1)C=C(c1cc(F)c(Cl)cc1Cl)N=2 | > 100 µM | 4.71 µM | > 100 µM | > 100 µM |  | > 100 µM | > 100 µM | > 100 µM | > 100 µM | > 100 µM | > 100 µM | 34.6 µM |
| BrC(c1cccc2ccccc12)c1cccc2ccccc12 | > 100 µM | 31.4 µM | 27.8 µM | 26.6 µM |  | 44.6 µM | 27.4 µM | 27.9 µM | 31.4 µM | 26.4 µM | 44.2 µM | 27.1 µM |
| COc1cc(Cc2nccc3cc(OC)c(OC)cc23)c(N=NN(C)C)cc1OC | 25.4 µM |  | 17.7 µM | 77.8 µM | 9.33 µM | 31.1 µM | 41.3 µM | 16.4 µM | 26.4 µM | 35.7 µM | 96.7 µM | > 100 µM |
